SMILES strings stand for the structures.

We go through one compound from patent US12350382B2, “Method for preparing particles comprising metal oxide coating and particles with metal oxide coating” (priority 2007, dated 2025).

A short description of this data set: Analytical evaluation of the BPO release out of the silica shell (time for yellow color appearance, KI/sodium thiosulfate). The data set is classed as physicochemical. The note with it: free (uncoated) BPO, 0 coatings, no aging. Here is the method:
The release profile of BPO out of the silica shell was done in a water/Acetonitrile solution, which is capable of dissolving BPO. The method is based on the strong oxidation properties of BPO. BPO reacts with potassium iodine (KI) ions to form I2, which gives a color reaction. I2 is than reduces back to I^− using sodium thiosulfate (STS) to eliminate the color. Each 12.11 mg of oxidizing BPO was reduced by 1 ml of 0.1M STS.
Solution A is composed of deionized water, acetone, 0.1M STS solution and KI.
The following table includes the ratios between the components in order to distinguish a certain % of released BPO.
Suspension B, preparation of BPO: weigh 200 mg of BPO as 100% (1 g as 20% suspension) into 5 ml measuring bottle and fill with deionized water up to 5 ml.
Procedure: Into 50 ml glass beaker add 40 ml of solution A and the 5 ml of suspension B and measure the time for yellow color appearance.

As to `O=C(OOC(=O)c1ccccc1)c1ccccc1` [Free BPO, benzoyl peroxide], the “time for 30 % of BPO released” value was 0.5 min and the “time for 90 % of BPO released” value is 1 min.
